From patent US9845319B2, “Amide substituted thiazoles as modulators of RORyt” (Janssen Pharmaceutica NV, priority 2014, dated 2017)

Tests used:
[1] = tested on: IL-17 production by CD4 T cells; assay: Human Th17 Assay; assay type: cell-based; details: 72 h; IL-17 in supernatant, 3 days, human CD4+ T cells; read-out: Human Th17 Assay, IC50
Description: The human Th17 assay tests the effect of RORγt modulatory compounds on IL-17 production by CD4 T cells under conditions which favor Th17 differentiation. Total CD4^+ T cells were isolated from the peripheral blood mononuclear cells (PBMC) of healthy donors using a CD4^+ T cell isolation kit II, following the manufacturer's instructions (Miltenyi Biotec). […] 50 μL of compound at titrated concentrations in DMSO were added into each well at final DMSO concentration at 0.2%. Cells were incubated for 1 hour, then 50 μL of Th17 cell differentiation medium was added to each well. The final concentrations of antibodies and cytokines (R&D Systems) in differentiation medium were: 3×10^6/mL anti-CD3/CD28 beads (prepared using human T cell activation/expansion kit, Miltenyi Biotec), 10 μg/mL anti-IL4, 10 μg/mL anti-IFNγ, 10 ng/mL IL1β, 10 ng/mL IL23, 50 ng/mL IL6, 3 ng/mL TGFβ and 20 U/mL IL2. Cells were cultured at 37° C. and 5% CO2 for 3 days. Supernatants were collected and the accumulated IL-17 in culture was measured by using MULTI-SPOT® Cytokine Plate following manufacture's instruction (Meso Scale Discovery). The plate was read using Sector Imager 6000, and IL-17 concentration was extrapolated from the standard curve. The IC50s were determined by GraphPad.

full-length human RORγt [2] = target: T1, full-length human RORγt (Homo sapiens, UniProt P51449); assay: RORγt (full-length human) Reporter Assay, Conditions A; assay type: cell-based; details: for IC50: HEK293T cells, GAL4-DBD-RORγt, luciferase, read-out: RORγt (FL) Reporter Assay A, IC50; for inhibition at 6 µM: read-out: RORγt (FL) Reporter Assay A, % inhibition @ 6 μM, 6 μM compound
T1 construct: expressed in transfected cells; host or cells: HEK293T, transiently transfected with pCMV-BD-ROR
T1 sequence (P51449 1-497 isoform P51449-2): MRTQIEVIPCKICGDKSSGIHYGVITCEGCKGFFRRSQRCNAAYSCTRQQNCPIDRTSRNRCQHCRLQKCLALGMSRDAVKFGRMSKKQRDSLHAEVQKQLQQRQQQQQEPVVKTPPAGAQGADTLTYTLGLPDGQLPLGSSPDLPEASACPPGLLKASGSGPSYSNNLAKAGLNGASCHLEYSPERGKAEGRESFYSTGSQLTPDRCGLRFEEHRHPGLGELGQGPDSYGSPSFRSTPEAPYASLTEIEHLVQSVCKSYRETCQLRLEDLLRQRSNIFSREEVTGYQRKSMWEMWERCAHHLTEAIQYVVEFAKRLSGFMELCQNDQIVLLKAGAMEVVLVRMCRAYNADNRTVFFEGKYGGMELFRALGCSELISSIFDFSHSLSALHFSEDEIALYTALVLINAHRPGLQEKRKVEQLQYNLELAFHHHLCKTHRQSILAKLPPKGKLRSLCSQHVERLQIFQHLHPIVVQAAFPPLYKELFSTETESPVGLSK
Method in brief: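 Reporter cells lysed after 16–20 h compound exposure; firefly and Renilla luciferase luminescence measured. Firefly signal normalised to DMSO and saturating reference compound, then to Renilla; IC50 from normalised data versus concentration, percent inhibition relative to DMSO.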

[3] = target: T2, human RORγt ligand binding domain (RORγt LBD) (Homo sapiens, UniProt P51449); assay: RORγt ThermoFluor assay; details: estimated from thermal shift concentration response
T2 construct: His-tag (N); TurboTEV protease cleavage site (ENLYFQG) (N); made in house; host or cells: E. coli (pHIS1, a modified pET expression vector)
T2 sequence (P51449 with tags, fused parts or gaps): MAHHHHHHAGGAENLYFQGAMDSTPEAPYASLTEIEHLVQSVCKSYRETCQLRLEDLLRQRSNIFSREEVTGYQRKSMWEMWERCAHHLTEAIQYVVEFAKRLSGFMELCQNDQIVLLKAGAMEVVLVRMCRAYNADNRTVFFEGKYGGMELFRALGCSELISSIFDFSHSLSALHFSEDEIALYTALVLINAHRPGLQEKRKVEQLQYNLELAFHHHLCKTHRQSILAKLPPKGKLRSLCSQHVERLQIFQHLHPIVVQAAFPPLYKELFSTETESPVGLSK
Method in brief: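 Thermal shift of RORγt LBD (0.065 mg/mL) with 60 μM 1,8-ANS in 100 mM Hepes pH 7.0, NaCl, GSH, 0.002% Tween-20, heated at 1° C/min. ANS fluorescence tracked versus temperature; ΔTm relative to DMSO wells. Compounds serially diluted 1:2 from 10 mM DMSO stock.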

full-length human RORγt [4] = target: T1, full-length human RORγt; assay: RORγt (full-length human) Reporter Assay, Conditions B or C; assay type: cell-based; details: for IC50: HEK293T cells, GAL4-DBD-RORγt, luciferase, read-out: RORγt (FL) Reporter Assay B or C, IC50; for inhibition at 6 µM: read-out: RORγt (FL) Reporter Assay B or C, % inhibition @ 6 μM, 6 μM compound
Description: HEK293T cells were plated at 35,000 per well in 96-well plate in medium of DMEM with 10% FBS. […] After overnight (16 to 20 hours) incubation, media were removed and cells were lysed with 50 μL Glo Lysis Buffer (Promega) for 10-15 minutes followed by 10 minute incubation with 50 uL Dual Glo reagent (Promega) at room temperature. Firefly luciferase luminescence was measured using a BMG Pherastar plate reader. To each well, 50 uL Stop and Glo reagent was added and incubated for 10 minutes at room temperature. Renilla luminescence was measured using a BMG Pherastar plate reader. To calculate the effect of compounds on RORγt activity, firefly values were normalized against values of DMSO only and values of reference compound at saturating concentration, then further normalized against Renilla signals. IC50s were generated by plotting final Renilla normalized data against compound concentration and percent inhibition was calculated against DMSO control. […] HEK293T cells were plated at 8750 cells per well in 384-well plate in medium of DMEM with 10% FBS. […] After overnight (16 to 20 hours) incubation, media were removed and cells were lysed with 20 μL Glo Lysis Buffer (Promega) for 10-15 minutes followed by 10 minute incubation with 20 uL Dual Glo reagent (Promega) at room temperature. Firefly luciferase luminescence was measured using a BMG Pherastar plate reader. To each well, 20 uL Stop and Glo reagent was added and incubated for 10 minutes at room temperature. Renilla luminescence was measured using a BMG Pherastar plate reader. To calculate the effect of compounds on RORγt activity, firefly values were normalized against values of DMSO only and values of reference compound at saturating concentration, then further normalized against Renilla signals. IC50s were generated by plotting final Renilla normalized data against compound concentration and percent inhibition was calculated against DMSO control.

IC50 [1] [nM]	IC50 (full-length human RORγt [2]) [nM]	inhibition at 6 µM (full-length human RORγt [2]) [%]	Kd [3] [nM]	inhibition at 2 µM (full-length human RORγt [2]; read-out: RORγt (FL) Reporter Assay A, % inhibition (* at 2 μM), 2 μM compound concentration (footnote *)) [%]	IC50 (full-length human RORγt [4]) [nM]	inhibition at 6 µM (full-length human RORγt [4]) [%]	SMILES
6000	1900	59	0.64	–	–	–	CC[C@H](NS(=O)(=O)c1ccc(-c2sc(-c3nnn[nH]3)nc2C(=O)N2CCCC[C@@H]2C)c(Cl)c1Cl)C(F)(F)F [Example 15, 2,3-Dichloro-4-(4-((S)-2-methylpiperidine-1-carbonyl)-2-(1H-tetrazol-5-yl)thiazol-5-yl)-N—((S)-1,1,1-trifluorobutan-2-yl)benzenesulfonamide]
100	110	108	6.5	–	–	–	C[C@H](NS(=O)(=O)c1ccc(-c2sc(-c3nnc(C(C)(C)O)o3)nc2C(=O)N2CCOC[C@@H]2C)c(Cl)c1Cl)C(F)(F)F [Example 6/9, 2,3-Dichloro-4-(2-(5-(2-hydroxypropan-2-yl)-1,3,4-oxadiazol-2-yl)-4-((S)-3-methylmorpholine-4-carbonyl)thiazol-5-yl)-N—((S)-1,1,1-trifluoropropan-2-yl)benzenesulfonamide]
410	350	103	3.7	–	–	–	C[C@H](NS(=O)(=O)c1ccc(-c2sc(-c3cc(CC(C)(C)C(=O)O)on3)nc2C(=O)N2CCC(F)(F)CC2)c(C(F)F)c1F)C(F)(F)F [Example 18, (S)-3-(3-(5-(2-(Difluoromethyl)-3-fluoro-4-(N-(1,1,1-trifluoropropan-2-yl)sulfamoyl)phenyl)-4-(4,4-difluoropiperidine-1-carbonyl)thiazol-2-yl)isoxazol-5-yl)-2,2-dimethylpropanoic acid]
470	170	104	5.6	–	–	–	C[C@H](NS(=O)(=O)c1ccc(-c2sc(-c3cc(CC(C)(C)C(=O)O)on3)nc2C(=O)N2CC(F)(F)C[C@@H]2C)c(C(F)F)c1F)C(F)(F)F [Example 18/1, 3-(3-(4-((S)-4,4-Difluoro-2-methylpyrrolidine-1-carbonyl)-5-(2-(difluoromethyl)-3-fluoro-4-(N—((S)-1,1,1-trifluoropropan-2-yl)sulfamoyl)phenyl)thiazol-2-yl)isoxazol-5-yl)-2,2-dimethylpropanoic acid]
~6000	320	47	12	–	–	–	CC(C)(O)c1nnc(-c2nc(C(=O)N3CCC(F)(F)CC3)c(-c3ccc(C(O)C4(C(F)(F)F)CC4)c(Cl)c3Cl)s2)o1 (stereo not shown) [Example 8/4, (5-(2,3-Dichloro-4-(hydroxy(1-(trifluoromethyl)cyclopropyl)methyl)phenyl)-2-(5-(2-hydroxypropan-2-yl)-1,3,4-oxadiazol-2-yl)thiazol-4-yl)(4,4-difluoropiperidin-1-yl)methanone]
–	110	–	5	99	83	87	C[C@H]1CCCN1C(=O)c1nc(-c2nnc(C(C)(C)O)n2C)sc1-c1ccc(C(O)(C(F)(F)F)C(F)(F)F)cc1C(F)(F)F [Example 22, (S)-(5-(4-(1,1,1,3,3,3-Hexafluoro-2-hydroxypropan-2-yl)-2-(trifluoromethyl)phenyl)-2-(5-(2-hydroxypropan-2-yl)-4-methyl-4H-1,2,4-triazol-3-yl)thiazol-4-yl)(2-methylpyrrolidin-1-yl)methanone]
76	57	106	0.04	–	–	–	CC[C@H](NS(=O)(=O)c1ccc(-c2sc(-c3noc(CC(C)(C)C(=O)O)n3)nc2C(=O)N2CCC(F)(F)CC2)c(OC(F)(F)F)c1)C(F)(F)F [Example 10/2, (S)-3-(3-(4-(4,4-Difluoropiperidine-1-carbonyl)-5-(4-(N-(1,1,1-trifluorobutan-2-yl)sulfamoyl)-2-(trifluoromethoxy)phenyl)thiazol-2-yl)-1,2,4-oxadiazol-5-yl)-2,2-dimethylpropanoic acid]
–	–	–	3.1	–	40	109	C[C@H](NS(=O)(=O)c1ccc(-c2sc(-c3nnc(C(C)(C)O)n3C3CC3)nc2C(=O)N2CCC(F)(F)CC2)c(Cl)c1Cl)C(F)(F)F [Example 23, (S)-2,3-Dichloro-4-(2-(4-cyclopropyl-5-(2-hydroxypropan-2-yl)-4H-1,2,4-triazol-3-yl)-4-(4,4-difluoropiperidine-1-carbonyl)thiazol-5-yl)-N-(1,1,1-trifluoropropan-2-yl)benzenesulfonamide]
54	1100	89	1.3	–	–	–	CCN(CC)C(=O)c1nc(-c2nnc(CC(C)(C)C(=O)O)o2)sc1-c1ccc(S(=O)(=O)N[C@@H](C)C(F)(F)F)c(Cl)c1Cl [Example 1, (S)-3-(5-(5-(2,3-Dichloro-4-(N-(1,1,1-trifluoropropan-2-yl)sulfamoyl)phenyl)-4-(diethylcarbamoyl)thiazol-2-yl)-1,3,4-oxadiazol-2-yl)-2,2-dimethylpropanoic acid]
9	30	107	0.38	–	–	–	Cc1c(S(=O)(=O)N[C@@H](C)C(F)(F)F)ccc(-c2sc(-c3nnc(C(C)(C)O)o3)nc2C(=O)N2CCC(F)(F)CC2)c1Cl [Example 27, 3-Chloro-4-(4-(4,4-difluoropiperidine-1-carbonyl)-2-(5-(2-hydroxypropan-2-yl)-1,3,4-oxadiazol-2-yl)thiazol-5-yl)-2-methyl-N—((S)-1,1,1-trifluoropropan-2-yl)benzenesulfonamide]
